system: 843126-344-R-J1-PDC complex spheroid viability; test: Anticancer human tumor 843126-344-R-J1-PDC patient-derived melanoma cell line growth inhibition [POLQ]; details: second compound 0.1 µM; first compound 1 µM; stronger effect = lower value
Summary of the method: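 Complex spheroid viability model combining PDC tumour cells with endothelial (HUVEC) and MSC stromal cells. Novobiocin, ART-558 or RP6685 were tested singly and in combination with standard and investigational anticancer drugs. Each was titrated in half-log steps from near clinical Cmax, or from 10 microM where Cmax was unknown.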
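Also: spheroids exposed to drugs for seven days before readout.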

Structure (SMILES) | viability, T/C [%]
COc1ccc([C@@H](O)c2cc(-c3ncnc4cc(N5CCOCC5)ccc34)c(F)cc2Cl)nn1 + Cc1cccc(N(C)C(=O)C2C(O)CCN2c2nc(C)cc(C(F)(F)F)c2C#N)c1 | 99.2
O=C(Nc1ccc(O)c(NS(=O)(=O)c2ccc(F)cc2)c1)c1ccc(-c2ccccc2)cc1 + Cc1cccc(N(C)C(=O)C2C(O)CCN2c2nc(C)cc(C(F)(F)F)c2C#N)c1 | 83.6

same assay, conditions: second compound 0.1 µM; first compound 3.16 µM; stronger effect = lower value

Structure (SMILES) | viability, T/C [%]
C#Cc1c(F)ccc2cc(O)cc(-c3ncc4c(N5CC6CCC(C5)N6)nc(OCC56CCCN5CC(F)C6)nc4c3F)c12 (configuration not stated) + Cc1cccc(N(C)C(=O)C2C(O)CCN2c2nc(C)cc(C(F)(F)F)c2C#N)c1 | 118
C=CC(=O)N1CCN(c2nc(=O)n(-c3c(C)ccnc3C(C)C)c3nc(-c4c(O)cccc4F)c(F)cc23)C(C)C1 (configuration not stated) + Cc1cccc(N(C)C(=O)C2C(O)CCN2c2nc(C)cc(C(F)(F)F)c2C#N)c1 | 80.7
CC(C)n1c(=O)n(C)c2cnc3cc(F)c(-c4ccc(OCCCN5CCCCC5)nc4)cc3c21 + Cc1cccc(N(C)C(=O)C2C(O)CCN2c2nc(C)cc(C(F)(F)F)c2C#N)c1 | 78.1
CCc1cc2c(N3CCc4c(cc(Cn5ccnc5)cc4-c4cn(C)nc4C(F)(F)F)C3=O)cc(C)nc2c(OC)n1 + Cc1cccc(N(C)C(=O)C2C(O)CCN2c2nc(C)cc(C(F)(F)F)c2C#N)c1 | 71.5
CCc1cc2c(N3CCc4c(cc(Cn5ccnc5)cc4-c4cn(C)nc4C(F)(F)F)C3=O)ccnc2c(OC)n1 + Cc1cccc(N(C)C(=O)C2C(O)CCN2c2nc(C)cc(C(F)(F)F)c2C#N)c1 | 72.3
COc1cc2cc(C(=O)CCC(=O)O)sc2cc1OC + Cc1cccc(N(C)C(=O)C2C(O)CCN2c2nc(C)cc(C(F)(F)F)c2C#N)c1 | 94.4
COc1ccc([C@@H](O)c2cc(-c3ncnc4cc(N5CCOCC5)ccc34)c(F)cc2Cl)nn1 + Cc1cccc(N(C)C(=O)C2C(O)CCN2c2nc(C)cc(C(F)(F)F)c2C#N)c1 | 93.2
O=C(Nc1ccc(O)c(NS(=O)(=O)c2ccc(F)cc2)c1)c1ccc(-c2ccccc2)cc1 + Cc1cccc(N(C)C(=O)C2C(O)CCN2c2nc(C)cc(C(F)(F)F)c2C#N)c1 | 96.5

same assay, conditions: second compound 0.1 µM; first compound 10 µM; stronger effect = lower value

Structure (SMILES) | viability, T/C [%]
C#Cc1c(F)ccc2cc(O)cc(-c3ncc4c(N5CC6CCC(C5)N6)nc(OCC56CCCN5CC(F)C6)nc4c3F)c12 (configuration not stated) + Cc1cccc(N(C)C(=O)C2C(O)CCN2c2nc(C)cc(C(F)(F)F)c2C#N)c1 | 79.6
C=CC(=O)N1CCN(c2nc(=O)n(-c3c(C)ccnc3C(C)C)c3nc(-c4c(O)cccc4F)c(F)cc23)C(C)C1 (configuration not stated) + Cc1cccc(N(C)C(=O)C2C(O)CCN2c2nc(C)cc(C(F)(F)F)c2C#N)c1 | 80.7
CC(C)n1c(=O)n(C)c2cnc3cc(F)c(-c4ccc(OCCCN5CCCCC5)nc4)cc3c21 + Cc1cccc(N(C)C(=O)C2C(O)CCN2c2nc(C)cc(C(F)(F)F)c2C#N)c1 | 67.1
CCc1cc2c(N3CCc4c(cc(Cn5ccnc5)cc4-c4cn(C)nc4C(F)(F)F)C3=O)cc(C)nc2c(OC)n1 + Cc1cccc(N(C)C(=O)C2C(O)CCN2c2nc(C)cc(C(F)(F)F)c2C#N)c1 | 64.1
CCc1cc2c(N3CCc4c(cc(Cn5ccnc5)cc4-c4cn(C)nc4C(F)(F)F)C3=O)ccnc2c(OC)n1 + Cc1cccc(N(C)C(=O)C2C(O)CCN2c2nc(C)cc(C(F)(F)F)c2C#N)c1 | 60.4
COc1cc2cc(C(=O)CCC(=O)O)sc2cc1OC + Cc1cccc(N(C)C(=O)C2C(O)CCN2c2nc(C)cc(C(F)(F)F)c2C#N)c1 | 85.2
COc1ccc([C@@H](O)c2cc(-c3ncnc4cc(N5CCOCC5)ccc34)c(F)cc2Cl)nn1 + Cc1cccc(N(C)C(=O)C2C(O)CCN2c2nc(C)cc(C(F)(F)F)c2C#N)c1 | 63.3
O=C(Nc1ccc(O)c(NS(=O)(=O)c2ccc(F)cc2)c1)c1ccc(-c2ccccc2)cc1 + Cc1cccc(N(C)C(=O)C2C(O)CCN2c2nc(C)cc(C(F)(F)F)c2C#N)c1 | 75

same assay, conditions: second compound 0.316 µM; first compound 0.0316 µM; stronger effect = lower value

Structure (SMILES) | viability, T/C [%]
C#Cc1c(F)ccc2cc(O)cc(-c3ncc4c(N5CC6CCC(C5)N6)nc(OCC56CCCN5CC(F)C6)nc4c3F)c12 (configuration not stated) + Cc1cccc(N(C)C(=O)C2C(O)CCN2c2nc(C)cc(C(F)(F)F)c2C#N)c1 | 96.1
C=CC(=O)N1CCN(c2nc(=O)n(-c3c(C)ccnc3C(C)C)c3nc(-c4c(O)cccc4F)c(F)cc23)C(C)C1 (configuration not stated) + Cc1cccc(N(C)C(=O)C2C(O)CCN2c2nc(C)cc(C(F)(F)F)c2C#N)c1 | 81.3
CC(C)n1c(=O)n(C)c2cnc3cc(F)c(-c4ccc(OCCCN5CCCCC5)nc4)cc3c21 + Cc1cccc(N(C)C(=O)C2C(O)CCN2c2nc(C)cc(C(F)(F)F)c2C#N)c1 | 92
CCc1cc2c(N3CCc4c(cc(Cn5ccnc5)cc4-c4cn(C)nc4C(F)(F)F)C3=O)cc(C)nc2c(OC)n1 + Cc1cccc(N(C)C(=O)C2C(O)CCN2c2nc(C)cc(C(F)(F)F)c2C#N)c1 | 94.3
CCc1cc2c(N3CCc4c(cc(Cn5ccnc5)cc4-c4cn(C)nc4C(F)(F)F)C3=O)ccnc2c(OC)n1 + Cc1cccc(N(C)C(=O)C2C(O)CCN2c2nc(C)cc(C(F)(F)F)c2C#N)c1 | 99.6
COc1cc2cc(C(=O)CCC(=O)O)sc2cc1OC + Cc1cccc(N(C)C(=O)C2C(O)CCN2c2nc(C)cc(C(F)(F)F)c2C#N)c1 | 97.2
COc1ccc([C@@H](O)c2cc(-c3ncnc4cc(N5CCOCC5)ccc34)c(F)cc2Cl)nn1 + Cc1cccc(N(C)C(=O)C2C(O)CCN2c2nc(C)cc(C(F)(F)F)c2C#N)c1 | 103
O=C(Nc1ccc(O)c(NS(=O)(=O)c2ccc(F)cc2)c1)c1ccc(-c2ccccc2)cc1 + Cc1cccc(N(C)C(=O)C2C(O)CCN2c2nc(C)cc(C(F)(F)F)c2C#N)c1 | 86.4

same assay, conditions: second compound 0.316 µM; first compound 0.1 µM; stronger effect = lower value

Structure (SMILES) | viability, T/C [%]
C#Cc1c(F)ccc2cc(O)cc(-c3ncc4c(N5CC6CCC(C5)N6)nc(OCC56CCCN5CC(F)C6)nc4c3F)c12 (configuration not stated) + Cc1cccc(N(C)C(=O)C2C(O)CCN2c2nc(C)cc(C(F)(F)F)c2C#N)c1 | 105
C=CC(=O)N1CCN(c2nc(=O)n(-c3c(C)ccnc3C(C)C)c3nc(-c4c(O)cccc4F)c(F)cc23)C(C)C1 (configuration not stated) + Cc1cccc(N(C)C(=O)C2C(O)CCN2c2nc(C)cc(C(F)(F)F)c2C#N)c1 | 85.6
CC(C)n1c(=O)n(C)c2cnc3cc(F)c(-c4ccc(OCCCN5CCCCC5)nc4)cc3c21 + Cc1cccc(N(C)C(=O)C2C(O)CCN2c2nc(C)cc(C(F)(F)F)c2C#N)c1 | 96.9
CCc1cc2c(N3CCc4c(cc(Cn5ccnc5)cc4-c4cn(C)nc4C(F)(F)F)C3=O)cc(C)nc2c(OC)n1 + Cc1cccc(N(C)C(=O)C2C(O)CCN2c2nc(C)cc(C(F)(F)F)c2C#N)c1 | 93.2
CCc1cc2c(N3CCc4c(cc(Cn5ccnc5)cc4-c4cn(C)nc4C(F)(F)F)C3=O)ccnc2c(OC)n1 + Cc1cccc(N(C)C(=O)C2C(O)CCN2c2nc(C)cc(C(F)(F)F)c2C#N)c1 | 74.9
COc1cc2cc(C(=O)CCC(=O)O)sc2cc1OC + Cc1cccc(N(C)C(=O)C2C(O)CCN2c2nc(C)cc(C(F)(F)F)c2C#N)c1 | 92.4
COc1ccc([C@@H](O)c2cc(-c3ncnc4cc(N5CCOCC5)ccc34)c(F)cc2Cl)nn1 + Cc1cccc(N(C)C(=O)C2C(O)CCN2c2nc(C)cc(C(F)(F)F)c2C#N)c1 | 102
O=C(Nc1ccc(O)c(NS(=O)(=O)c2ccc(F)cc2)c1)c1ccc(-c2ccccc2)cc1 + Cc1cccc(N(C)C(=O)C2C(O)CCN2c2nc(C)cc(C(F)(F)F)c2C#N)c1 | 88.2

same assay, conditions: second compound 0.316 µM; first compound 0.316 µM; stronger effect = lower value

Structure (SMILES) | viability, T/C [%]
C#Cc1c(F)ccc2cc(O)cc(-c3ncc4c(N5CC6CCC(C5)N6)nc(OCC56CCCN5CC(F)C6)nc4c3F)c12 (configuration not stated) + Cc1cccc(N(C)C(=O)C2C(O)CCN2c2nc(C)cc(C(F)(F)F)c2C#N)c1 | 91.2
C=CC(=O)N1CCN(c2nc(=O)n(-c3c(C)ccnc3C(C)C)c3nc(-c4c(O)cccc4F)c(F)cc23)C(C)C1 (configuration not stated) + Cc1cccc(N(C)C(=O)C2C(O)CCN2c2nc(C)cc(C(F)(F)F)c2C#N)c1 | 91.1
CC(C)n1c(=O)n(C)c2cnc3cc(F)c(-c4ccc(OCCCN5CCCCC5)nc4)cc3c21 + Cc1cccc(N(C)C(=O)C2C(O)CCN2c2nc(C)cc(C(F)(F)F)c2C#N)c1 | 88.7
CCc1cc2c(N3CCc4c(cc(Cn5ccnc5)cc4-c4cn(C)nc4C(F)(F)F)C3=O)cc(C)nc2c(OC)n1 + Cc1cccc(N(C)C(=O)C2C(O)CCN2c2nc(C)cc(C(F)(F)F)c2C#N)c1 | 82.4
CCc1cc2c(N3CCc4c(cc(Cn5ccnc5)cc4-c4cn(C)nc4C(F)(F)F)C3=O)ccnc2c(OC)n1 + Cc1cccc(N(C)C(=O)C2C(O)CCN2c2nc(C)cc(C(F)(F)F)c2C#N)c1 | 86
COc1cc2cc(C(=O)CCC(=O)O)sc2cc1OC + Cc1cccc(N(C)C(=O)C2C(O)CCN2c2nc(C)cc(C(F)(F)F)c2C#N)c1 | 90.1
COc1ccc([C@@H](O)c2cc(-c3ncnc4cc(N5CCOCC5)ccc34)c(F)cc2Cl)nn1 + Cc1cccc(N(C)C(=O)C2C(O)CCN2c2nc(C)cc(C(F)(F)F)c2C#N)c1 | 92.2
O=C(Nc1ccc(O)c(NS(=O)(=O)c2ccc(F)cc2)c1)c1ccc(-c2ccccc2)cc1 + Cc1cccc(N(C)C(=O)C2C(O)CCN2c2nc(C)cc(C(F)(F)F)c2C#N)c1 | 103

Source: PubChem BioAssay AID1963837 (Molecular Pharmacology Branch, DTP, NCI, 2024)
